{
  "source": "patent US20090182149A1",
  "about": "“SALT OF SULFINYLBENZIMIDAZOLE COMPOUND, AND CRYSTAL AND AMORPHOUS FORM THEREOF” (priority 2006, published 2009)",
  "test_system": "gastric secretion (gastric acid output) in chronic gastrostormy tube-implanted dogs",
  "experiment": "Gastric secretion inhibitory action in chronic gastrostormy tube-implanted dogs (histamine-stimulated)",
  "assay_type": "in vivo",
  "details": "i.d., histamine i.v.; for Gastric secretion inhibitory action (%): first day, 1 h 40 min to 2 h after administration; for Gastric secretion inhibition duration (%): second day (24 hours after administration)",
  "protocol": "Gastric Secretion Inhibitory Action in Chronic Gastrostormy Tube-Implanted Dogs\nLarge dogs (body weight: 14-19 kg) having chronic gastrostormy tubes implanted were used to examine the gastric secretion inhibitory action and gastric secretion inhibitory action durations of the example compounds. The experiment was conducted over a period of 2 days. On the first day, histamine (50 or 75 μg/kg/h) was continuously administered intravenously for 3 hours and gastric juice was taken every 20 minutes. One hour after starting histamine administration, the example compound suspended or dissolved in a 0.5% methylcellulose solution was administered to the duodenum through an indwelling catheter at a dose of 0.1 ml/kg. The gastric secretion inhibitory action of the example compound was examined for 2 hours thereafter. On the second day (24 hours after administration of the example compound), histamine was continuously administered intravenously for 2 hours and gastric juice was taken every 20 minutes to examine the gastric secretion inhibitory action duration. After measuring the gastric juice volume, 0.5 ml of gastric juice was sampled and subjected to neutralization titration to pH 7.0 with a 0.04 mol/l sodium hydroxide solution to measure the acid concentration. The acid concentration was multiplied by the gastric juice volume to determine the gastric acid output. The gastric secretion inhibitory action was evaluated by the gastric secretion inhibition (%) on the first day. The gastric secretion inhibitory action (%) was determined by the formula shown below. Where two or more cases were examined, the average of all the cases was determined.\nGastric secretion inhibitory action (%)=(A−B)/A×100\n[A]: Gastric acid output during 20 minutes, from 40 minutes to 1 hour after start of histamine administration [B]: Gastric acid output during 20 minutes, from 1 hour and 40 minutes to 2 hours after administration of example compound\nThe gastric secretion inhibitory action duration was evaluated by the gastric secretion inhibition (%) on the second day. The gastric secretion inhibitory action duration (%) was determined by the formula shown below.\nGastric secretion inhibitory action duration (%)=(C−D)/C×100\n[C]: Total gastric acid output from start to one hour after histamine administration on the first day [D]: Total gastric acid output from start to one hour after histamine administration on the second day",
  "data": [
    {"compound": "Cc1cnc(C[S+]([O-])c2nc3ccccc3[n-]2)c(C)c1OCC1COC(C)(C)OC1.[Na+]", "note": "[Compound A, Sodium salt of (R)-2-({[4-(2,2-dimethyl-1,3-dioxan-5-yl)methoxy-3,5-dimethylpyridin-2-yl]methyl}sulfinyl)-1H-benzimidazole]", "values": [
      {"measurement": "Gastric secretion inhibitory action (%)", "setting": "0.1 mg/kg, average of 4 cases", "result": 8, "unit": "%"},
      {"measurement": "Gastric secretion inhibition duration (%)", "setting": "0.1 mg/kg, 4 cases", "result": 6, "unit": "%"},
      {"measurement": "Gastric secretion inhibitory action (%)", "setting": "0.2 mg/kg, average of 4 cases", "result": 65, "unit": "%"},
      {"measurement": "Gastric secretion inhibition duration (%)", "setting": "0.2 mg/kg, 4 cases", "result": 46, "unit": "%"},
      {"measurement": "Gastric secretion inhibitory action (%)", "setting": "0.4 mg/kg, average of 10 cases", "result": 97, "unit": "%"},
      {"measurement": "Gastric secretion inhibition duration (%)", "setting": "0.4 mg/kg, 10 cases", "result": 77, "unit": "%"},
      {"measurement": "Gastric secretion inhibitory action (%)", "setting": "0.8 mg/kg, average of 8 cases", "result": 100, "unit": "%"},
      {"measurement": "Gastric secretion inhibition duration (%)", "setting": "0.8 mg/kg, 8 cases", "result": 89, "unit": "%"}
    ]}
  ]
}
